Drawing on ChEMBL document CHEMBL1138576, “Virtual screening for Raf-1 kinase inhibitors based on pharmacophore model of substituted ureas” (Eur J Med Chem, 2009), this text covers IC50 for 25 compounds.

Molecules are shown by their SMILES.

This assay concerns the target RAF proto-oncogene serine/threonine-protein kinase (Homo sapiens, UniProt P04049). As to the kind of experiment: Inhibition of Raf-1.

Sequence of RAF proto-oncogene serine/threonine-protein kinase (P04049 whole entry): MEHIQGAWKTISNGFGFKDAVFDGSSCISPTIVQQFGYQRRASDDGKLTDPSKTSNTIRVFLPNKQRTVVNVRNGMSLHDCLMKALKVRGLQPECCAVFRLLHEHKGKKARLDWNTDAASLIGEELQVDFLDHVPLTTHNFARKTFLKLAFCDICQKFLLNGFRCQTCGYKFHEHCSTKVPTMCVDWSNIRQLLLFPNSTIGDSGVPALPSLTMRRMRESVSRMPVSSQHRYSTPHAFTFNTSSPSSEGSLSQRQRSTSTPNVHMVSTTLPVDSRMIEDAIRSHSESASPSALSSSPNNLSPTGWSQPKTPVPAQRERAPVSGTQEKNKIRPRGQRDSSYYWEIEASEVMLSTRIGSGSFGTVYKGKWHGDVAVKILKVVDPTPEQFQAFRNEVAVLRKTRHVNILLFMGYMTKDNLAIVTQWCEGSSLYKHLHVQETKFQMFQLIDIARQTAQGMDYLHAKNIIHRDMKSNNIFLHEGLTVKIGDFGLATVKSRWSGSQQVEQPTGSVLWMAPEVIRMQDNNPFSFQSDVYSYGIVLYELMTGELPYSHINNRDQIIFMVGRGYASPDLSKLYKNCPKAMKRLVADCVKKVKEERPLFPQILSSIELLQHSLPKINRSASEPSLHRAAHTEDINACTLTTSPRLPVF

In general, IC50 refers to the concentration needed to halve the response being measured. Compound `CC(C)(C)c1cccc(NC(=O)Nc2ccc(Oc3ccncc3)cc2)c1` had a half-maximal inhibitory concentration (IC50) of 870 nM. This lies in the sub-micromolar range. For `Cn1nc(C(C)(C)C)cc1NC(=O)Nc1ccc(Oc2ccncc2)cc1`, the IC50 is 800 nM. This IC50 and that of the compound before are within 1.5-fold of each other.

In the case of `Cc1cc(Oc2ccccc2)ccc1NC(=O)Nc1cc(C(C)(C)C)on1`, half-maximal inhibition (IC50) required 1400 nM.

Take `CCNC(=O)c1cc(Oc2ccc(NC(=O)Nc3cc(C(F)(F)F)c(Cl)cc3OC)cc2)ccn1`: the IC50 turned out to be 88 nM. Compared with the last compound, the IC50 is about 16-fold lower. Under `CC(C)(C)c1cc(NC(=O)Nc2ccc(Oc3ccccc3)c(C(F)(F)F)c2)no1` stands 9500 nM; under `CNC(=O)c1ccc(Oc2ccc(NC(=O)Nc3cc(C(C)(C)C)on3)cc2)cc1`, 1100 nM. Compound `COc1c(Cl)cccc1NC(=O)Nc1ccc(Oc2ccncc2)cc1` yielded an IC50 of 2700 nM. Against the preceding compound, the IC50 is about 2.5-fold higher. `CC(C)(C)c1cc(NC(=O)Nc2ccc(C(O)c3ccncc3)cc2)no1` (stereo not given) had an IC50 of 1500 nM. Under `CN(C)c1ccc(NC(=O)c2cc(Oc3ccc(NC(=O)Nc4ccc(Cl)c(C(F)(F)F)c4)cc3)ccn2)cc1` stands 230 nM; under `Cc1cccc(Oc2ccc(NC(=O)Nc3cc(C(C)(C)C)on3)cc2)c1`, 1000 nM; under `Cc1c(NC(=O)Nc2cc(C(C)(C)C)on2)ccc(Oc2ccccc2)c1C`, 650 nM. `COc1cc([N+](=O)[O-])ccc1NC(=O)Nc1ccc(Oc2ccncc2)cc1`: the IC50 was 4400 nM. Under `COC(=O)c1sc(C(C)(C)C)cc1NC(=O)Nc1ccc(O)cc1` stands 18000 nM; under `COc1cccc(Oc2ccc(NC(=O)Nc3cc(C(C)(C)C)on3)cc2)c1`, 700 nM; under `COC(=O)c1c(NC(=O)Nc2ccc(C)cc2)cc(C(C)(C)C)n1C`, 5000 nM.

On to `CNS(=O)(=O)c1cccc(Oc2ccc(NC(=O)Nc3cc(C(C)(C)C)on3)cc2)c1`, for which the midpoint of inhibition, the IC50, lay at 7500 nM. This IC50 is about 1.5-fold higher than that of the compound before. For the compound `O=C(Nc1ccc(Oc2ccnc(C(=O)Nc3cccnc3)c2)cc1)Nc1ccc(Cl)c(C(F)(F)F)c1`, half-maximal inhibition (IC50) was put at 44 nM. This IC50 is about 170-fold lower than that of the compound before. `COc1cccc(NC(=O)Nc2ccc(Oc3ccncc3)cc2)c1`: it took 440 nM to reach half-maximal inhibition (IC50).

For `CC(C)(C)c1cc(NC(=O)Nc2ccc(Oc3ccncc3)cc2)on1`, the IC50 was determined as 120 nM. With `CC(C)(C)c1cc(NC(=O)Nc2ccc(Cc3ccncc3)cc2)no1` the figure was 590 nM; with `CC(=O)Nc1cccc(Oc2ccc(NC(=O)Nc3cc(C(C)(C)C)on3)cc2C(F)(F)F)c1`, 10000 nM; with `CC(=O)c1cccc(Oc2ccc(NC(=O)Nc3cc(C(C)(C)C)on3)cc2)c1`, 820 nM. Under `CC(C)(C)c1cc(NC(=O)Nc2ccc(Oc3ccc(C(=O)O)cc3)cc2)no1` stands 4400 nM; under `COc1ccc(Oc2ccc(NC(=O)Nc3cc(C(C)(C)C)on3)cc2)cc1`, 500 nM. Under `O=C(Nc1ccc(Oc2ccnc(C(=O)Nc3ccc(N4CCOCC4)cc3)c2)cc1)Nc1ccc(Cl)c(C(F)(F)F)c1` stands 160 nM.
